Test results published in patent publication EP0082501A1, “Beta-lactam compound and a pharmaceutical composition containing the same” (KYOWA HAKKO KOGYO CO., LTD, priority 1981, dated 1983).
In brackets after ≈: the same amount, converted by molar mass.

Tests used:
Assay in all cases: Antibacterial effect, dilution method on Mueller-Hinton agar (MIC)
Type in all cases: cell-based
Proteus morganii 4298 = conditions: Morganella morganii
[1] = system: Krebsiella pneumoniae 8045
[2] = system: Staphilococcus aureus 209-P
[3] = system: Pseudomonas sepatia F-2251; conditions: F2251
[4] = system: Enterobacter aerogenes F-1948; conditions: Klebsiella aerogenes, F1948
[5] = system: Pseudomonas maltphilia F-3438; conditions: F3438
Serratia marcescens T-26 = conditions: T26
Proteus rettgeri 4289 = conditions: Providencia rettgeri
Proteus vulgaris 6897 = system: Proteus vulgaris 6897
[6] = system: Pseudomonas aerginosa 145
[7] = system: Escherichia coli NIHJ C-2; conditions: NIHJC2

SMILES | MIC (Proteus morganii 4298) [µg/mL] | MIC [1] [µg/mL] | MIC [2] [µg/mL] | MIC [3] [µg/mL] | MIC [4] [µg/mL] | MIC [5] [µg/mL] | MIC (Serratia marcescens T-26) [µg/mL] | MIC (Proteus rettgeri 4289) [µg/mL] | MIC (Proteus vulgaris 6897) [µg/mL] | MIC [6] [µg/mL] | MIC [7] [µg/mL]
CO/N=C(\C(=O)N[C@@H]1C(=O)N2C(C(=O)O)=C[C@H](Sc3nnnn3C)C[C@H]12)c1csc(N)n1 [Ex.15, [4R,6R,7S]-7-[2-(2-amino-4-thiazolyl)-2-syn-methoxyiminoacetamido]-4-(1-methyl-1,2,3,4-tetrazol-5-yl)-thio-1-azabicyclo[4,2,0]oct-2-en-8-oxo-2-carboxylic acid] | ≤ 0.01 | 0.02 (≈ 0.0417 µM) | 6.25 (≈ 13 µM) | 25 (≈ 52.1 µM) | 50 (≈ 104 µM) | > 100 | 6.25 (≈ 13 µM) | ≤ 0.01 | ≤ 0.01 | 12.5 (≈ 26.1 µM) | 0.1 (≈ 0.209 µM)
CC(=O)Oc1ccc(C(=O)O/N=C(\C(=O)N[C@@H]2C(=O)N3C(C(=O)O)=C[C@H](N=[N+]=[N-])C[C@H]23)c2csc(N)n2)cc1OC(C)=O [Ex. 6, [4R,6R,7S]-7-[2-(2-amino-4-thiazolyl)-2-syn-(3,4-diacetoxy)-benzoyloxyimino-acetamido]-4-azido-l-azabicyclo[4,2,0]oct-2-en-8-oxo-2-carboxylic acid] | 0.05 (≈ 0.0816 µM) | 0.02 (≈ 0.0327 µM) | 3.13 (≈ 5.11 µM) | 0.02 (≈ 0.0327 µM) | 3.13 (≈ 5.11 µM) | 25 (≈ 40.8 µM) | 0.05 (≈ 0.0816 µM) | ≤ 0.01 | ≤ 0.01 | 0.1 (≈ 0.163 µM) | 0.05 (≈ 0.0816 µM)
CO/N=C(\C(=O)N[C@@H]1C(=O)N2C(C(=O)O)=C[C@@H](Sc3ccncc3)C[C@H]12)c1csc(N)n1 [Ex.23, sodium [4S,6R,7S]-7-[2-(2-amino-thiazol-4-yl)-2-syn-methoxyimino]-acetamido-4-(pyridin-4-yl)-thio-1-azabicyclo[4,2,0]oct-2-en-8-oxo-2-carboxylate] | 0.2 | 0.2 | 3.13 | 12.5 | 50 | > 100 | 25 | 0.02 | ≤ 0.01 | 12.5 | 0.39

The remaining lines, values ahead:

MIC (Proteus morganii 4298) [µg/mL] | MIC [1] [µg/mL] | MIC [2] [µg/mL] | MIC [3] [µg/mL] | MIC [4] [µg/mL] | MIC [5] [µg/mL] | MIC (Serratia marcescens T-26) [µg/mL] | MIC (Proteus rettgeri 4289) [µg/mL] | MIC (Proteus vulgaris 6897) [µg/mL] | MIC [6] [µg/mL] | MIC [7] [µg/mL] | SMILES
0.78 (≈ 1.44 µM) | 0.39 (≈ 0.72 µM) | 3.13 (≈ 5.78 µM) | 25 (≈ 46.2 µM) | 50 (≈ 92.3 µM) | > 100 | 6.25 (≈ 11.5 µM) | 0.2 (≈ 0.369 µM) | 0.02 (≈ 0.0369 µM) | 12.5 (≈ 23.1 µM) | 0.78 (≈ 1.44 µM) | CO/N=C(\C(=O)N[C@@H]1C(=O)N2C(C(=O)O)=C[C@H](Sc3nnnn3-c3ccccc3)C[C@H]12)c1csc(N)n1 [Ex. 13, [4R,6R,7S]-7-[2-(2-amino-4-thiazolyl)-2-syn-methoxyiminoacetamido]-4-(1-phenyl-1,2,3,4-tetrazol-5-yl)-thio-l-azabicyclo[4,2,0]oct-2-en-8-oxo-2-carboxylic acid]
0.02 (≈ 0.0492 µM) | 0.02 (≈ 0.0492 µM) | 6.25 (≈ 15.4 µM) | 25 (≈ 61.5 µM) | 25 (≈ 61.5 µM) | > 100 | 6.25 (≈ 15.4 µM) | ≤ 0.01 | ≤ 0.01 | 12.5 (≈ 30.8 µM) | 0.05 (≈ 0.123 µM) | CO/N=C(\C(=O)N[C@@H]1C(=O)N2C(C(=O)O)=C[C@@H](N=[N+]=[N-])C[C@H]12)c1csc(N)n1 [Ex.26, [4S,6R,7S]-7-[2-(2-amino-4-thiazolyl)-2-syn-methoxyiminoacetamido]-4-azido-1-azabicyclo[4,2,0]oct-2-en-8-oxo-2-carboxylic acid]
≤ 0.01 | 0.02 (≈ 0.0492 µM) | 1.56 (≈ 3.84 µM) | 12.5 (≈ 30.8 µM) | 25 (≈ 61.5 µM) | > 100 | 6.25 (≈ 15.4 µM) | – | – | 6.25 (≈ 15.4 µM) | 0.1 (≈ 0.246 µM) | CO/N=C(\C(=O)N[C@@H]1C(=O)N2C(C(=O)O)=C[C@H](N=[N+]=[N-])C[C@H]12)c1csc(N)n1 [Exs. 5 and 17, [4R, 6R, 7S]-7-[2-(2-amino-4-thiazolyl)-2-syn-methoxyiminoacetamido]-4-azido-1-azabicyclo [4,2,0]oct-2-en-8-oxo-2-carboxylic acid]
